Test results: patent US5780250A, “Immunoassay standards for polyaromatic hydrocarbon detection” (Strategic Diagnostics, Inc., priority 1996, dated 1998)

How the values were obtained:
[1] = tested on: rabbit anti-PAH antisera (anti-analyte antibody on paramagnetic particles); settings: for 50% B/Bo: concentration giving mean absorbance 0.5 times that of the Diluent/Zero Standard, competitive immunoassay, 450 nm; for LDD (least detectable dose): estimated as the dose needed to generate a B/Bo of 90%
[2] = Study of Standard Stability (B/Bo as a function of time of storage); settings: after 200 days of storage at 4° C. (FIG. 2)
Description: The vials were then capped with Teflon coated caps and crimped. The vials were then separated into five groups. Each group was then placed at a different temperature (-20° C., 2°-8° C., 20°-25° C., 37° C. and 50° C.) in an upright position. Standards were tested for B/Bo at specified intervals by assaying each standard level in duplicate for each temperature. The results were then graphed as a function of time (x) versus B/Bo(y) by temperature level.

| apparent increase in B/Bo on storage [2] [%] | SMILES | 50% B/Bo [1] [ppb] | LDD (least detectable dose) [1] [ppb] |
| --- | --- | --- | --- |
|  | c1ccc2cc3c(ccc4ccccc43)cc2c1 [1,2 benzoanthracene] | 28.4 | 0.77 |
|  | c1ccc2cc3ccccc3cc2c1 [anthracene] | 11.0 | 0.54 |
|  | c1ccc2c(c1)cc1ccc3cccc4ccc2c1c34 [benzo(a)pyrene] | 6.9 | 0.50 |
|  | c1ccc2c(c1)-c1cccc3c1c-2cc1ccccc13 [benzo(b)fluoranthene] | 54.2 | 0.91 |
|  | c1ccc2cc3c(cc2c1)-c1cccc2cccc-3c12 [benzo(k)fluoranthene] | 524 | 0.77 |
|  | c1ccc2c(c1)ccc1c3ccccc3ccc21 [chrysene] | 7.8 | 0.40 |
|  | c1ccc2c(c1)-c1cccc3cccc-2c13 [fluoranthene] | 4.7 | 0.32 |
|  | c1ccc2c(c1)Cc1ccccc1-2 [fluorene] | 35.2 | 1.65 |
|  | c1ccc2c(c1)-c1ccc3ccc4cccc5cc-2c1c3c45 [indeno(1,2,3-c,d)pyrene] | 27.2 | 0.78 |
| 25 | c1ccc2c(c1)ccc1ccccc12 [phenanthrene, reference compound] | 16.5 | 0.70 |
|  | c1cc2ccc3cccc4ccc(c1)c2c34 [pyrene] | 7.7 | 0.20 |
